According to PubChem BioAssay (NCI):
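In this assay, cells in 96-well plates receive the compound at five concentrations for 48 hours. Endpoints are linearly interpolated between the surrounding concentrations. TGI marks complete inhibition of growth.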

Experiments:
Assay in all cases: growth of human tumour cells (NCI), 48 h
[1] = tested on: PC-3 prostate
[2] = tested on: HCT-116 colon
[3] = tested on: MDA-MB-231 breast
[4] = tested on: DU-145 prostate
[5] = tested on: RXF 393 renal
[6] = tested on: COLO 205 colon
[7] = tested on: IGROV1 ovarian
[8] = tested on: T-47D breast
[9] = tested on: CAKI-1 renal
[10] = tested on: NCI/ADR-RES ovarian
[11] = tested on: SK-MEL-5 melanoma
[12] = tested on: SW-620 colon
[13] = tested on: 786-0 renal
[14] = tested on: UACC-257 melanoma
[15] = tested on: CCRF-CEM leukemia
[16] = tested on: SK-OV-3 ovarian
[17] = tested on: SK-MEL-2 melanoma
[18] = tested on: SF-268 CNS
[19] = tested on: MCF7 breast
[20] = tested on: MDA-MB-435
[21] = tested on: NCI-H23 lung
[22] = tested on: HS 578T breast
[23] = tested on: BT-549 breast
[24] = tested on: OVCAR-4 ovarian
[25] = tested on: NCI-H226 lung
[26] = tested on: A549 NSCLC
[27] = tested on: RPMI-8226 leukemia
[28] = tested on: OVCAR-8 ovarian
[29] = tested on: HCT-15 colon
[30] = tested on: SNB-19 CNS
[31] = tested on: UO-31 renal
[32] = tested on: HCC-2998 colon
[33] = tested on: HOP-62 NSCLC
[34] = tested on: HOP-92 NSCLC
[35] = tested on: OVCAR-5 ovarian
[36] = tested on: SK-MEL-28 melanoma
[37] = tested on: MOLT-4 leukemia
[38] = tested on: U251 CNS
[39] = tested on: ACHN renal
[40] = tested on: TK-10 renal
[41] = tested on: M14 melanoma
[42] = tested on: SF-539 CNS
[43] = tested on: KM12 colon
[44] = tested on: SF-295 CNS
[45] = tested on: LOX IMVI melanoma
[46] = tested on: SNB-75 CNS
[47] = tested on: A498 renal
[48] = tested on: MDA-N
[49] = tested on: EKVX NSCLC
[50] = tested on: UACC-62 melanoma
[51] = tested on: SN12C renal
[52] = tested on: OVCAR-3 ovarian
[53] = tested on: NCI-H522 lung
[54] = tested on: NCI-H460 lung
[55] = tested on: K-562 leukemia
[56] = tested on: SR leukemia

Measured: TGI

N#CCCN(CCN(CCN(C(=O)Nc1ccccc1)c1ccccc1)C(=O)Nc1ccccc1)C(=O)Nc1ccccc1
> 100 µM: [1] | [2] | [3] | [4] | [5] | [6] | [7] | [8] | [9] | [10] | [11] | [12] | [13] | [14] | [15] | [16] | [17] | [18] | [19] | [20] | [21] | [22] | [23] | [24] | [25] | [26] | [27] | [28] | [29] | [30] | [31] | [32] | [33] | [34] | [35] | [36] | [37] | [38] | [39] | [40] | [41] | [42] | [43] | [44] | [45] | [46] | [47] | [48] | [49] | [50] | [51] | [52]

C(=C/c1ccc2nc(-c3ccc(/C=C/C=N/NC4=NCCCN4)cc3)cn2c1)/C=N/NC1=NCCCN1
34.3 µM: [53]
41.6 µM: [4]
51.7 µM: [10]
> 100 µM: [2] | [6] | [7] | [8] | [11] | [13] | [14] | [15] | [16] | [17] | [20] | [21] | [23] | [24] | [27] | [29] | [30] | [31] | [32] | [33] | [34] | [35] | [36] | [37] | [38] | [39] | [40] | [41] | [42] | [43] | [44] | [56] | [46] | [47] | [48] | [50] | [51] | [52]
22 µM: [26]
35.7 µM: [49]
32.6 µM: [25]
42.2 µM: [22]
79.9 µM: [55]
67.4 µM: [1]
30.2 µM: [9]
73.2 µM: [54]
39 µM: [28]
48.6 µM: [5]
28.5 µM: [3]
54.7 µM: [18]
